From publication PMC2765508 (Biochemistry, 2009)
Entries after “also recorded” stand apart in the source; their conditions may differ.

Key:
[1] = biological target: T1, human MP1 (Homo sapiens, UniProt Q5JRX3); type: biochemical; conditions: for kcat/Km: from kcat (HPLC) and Km (alternate substrate inhibition)
T1 sequence (Q5JRX3 29-1037): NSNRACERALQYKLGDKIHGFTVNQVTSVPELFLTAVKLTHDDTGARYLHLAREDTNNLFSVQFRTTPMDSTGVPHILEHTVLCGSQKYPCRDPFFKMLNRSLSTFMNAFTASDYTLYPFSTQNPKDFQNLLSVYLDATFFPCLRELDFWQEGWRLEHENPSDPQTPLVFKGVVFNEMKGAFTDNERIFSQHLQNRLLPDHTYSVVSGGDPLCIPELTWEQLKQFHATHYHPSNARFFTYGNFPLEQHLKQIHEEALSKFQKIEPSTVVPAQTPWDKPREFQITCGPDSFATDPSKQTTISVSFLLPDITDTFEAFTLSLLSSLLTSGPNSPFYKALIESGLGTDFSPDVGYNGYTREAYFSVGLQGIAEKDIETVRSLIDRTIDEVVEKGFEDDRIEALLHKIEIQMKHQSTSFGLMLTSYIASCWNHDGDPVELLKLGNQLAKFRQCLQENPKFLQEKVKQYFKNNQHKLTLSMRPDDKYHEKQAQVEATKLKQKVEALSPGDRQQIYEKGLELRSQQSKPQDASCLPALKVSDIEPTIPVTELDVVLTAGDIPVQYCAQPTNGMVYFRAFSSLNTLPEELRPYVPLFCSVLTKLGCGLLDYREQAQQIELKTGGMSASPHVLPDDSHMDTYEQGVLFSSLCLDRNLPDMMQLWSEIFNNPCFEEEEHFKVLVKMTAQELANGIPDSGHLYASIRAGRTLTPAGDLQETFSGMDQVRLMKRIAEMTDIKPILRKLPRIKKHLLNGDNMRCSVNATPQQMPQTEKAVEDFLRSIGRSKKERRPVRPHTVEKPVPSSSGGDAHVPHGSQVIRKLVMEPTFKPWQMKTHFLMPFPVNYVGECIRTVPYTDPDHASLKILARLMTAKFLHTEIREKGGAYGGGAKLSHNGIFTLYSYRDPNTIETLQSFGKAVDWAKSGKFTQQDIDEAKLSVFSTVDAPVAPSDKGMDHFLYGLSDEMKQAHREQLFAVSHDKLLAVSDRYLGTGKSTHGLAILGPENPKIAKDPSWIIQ

[2] = tested on: protease III; conditions: cited from earlier work
[3] = tested on: insulysin; conditions: cited from earlier work
[4] = tested on: nardilysin; conditions: cited from earlier work
[5] = tested on: MP1 (metallopeptidase 1, mammalian pitrilysin); assay: purified recombinant human MP1
[6] = biological target: T1, human MP1; type: biochemical; conditions: 27 amino acid citrate synthase presequence peptide as MP1 substrate
[7] = tested on: MP1; assay: 2 μg of MP1 in 25 mM Tris buffer, pH 7.5; conditions: human

| Substance | kcat/Km [1] [M × min^−1 × 10^5] | cleaved bond [5] | also measured |
| --- | --- | --- | --- |
| Angiotensin I | 44.6 ± 4.3 |  | cleavage by protease III [2]: not cleaved; cleavage by insulysin [3]: not cleaved; cleavage by nardilysin [4]: not cleaved |
| CGNLSTCMLGTYTQDFNKFHTFPQTAIGVGAP |  | C-M, first_seen; also recorded: G-T, first_seen; also recorded: K-F, minor |  |
| CGNLSTC▼MLG▼TYTQDFNK↓FHTFPQTAIGVGAP [Calcitonin] | 15.4 ± 0.6 |  |  |
| DAEFRHDSGYEVHHQKLVFF▼AEDVGSNKGAIIGL↓MVGGVV [β-Amyloid (1–40)] | 19.5 ± 1.1 |  |  |
| Insulin | 0.03 ± 0.00 |  |  |
| MALLTAAARLFGAKNASCLVLAARHAS-NH2 [citrate synthase presequence peptide] |  |  | Km [6]: 0.17 µM; kcat ([1]; 27 amino acid citrate synthase presequence peptide as MP1 substrate): 0.0183 s⁻¹ |
| RPKPQQFFGLM |  | F-F, minor; also recorded: G-L, first_seen |  |
| RPKPQQF↓FG▼LM [Substance P] | 23.6 ± 2.5 |  |  |
| RPPG▼FSPFR [Bradykinin] | 21.8 ± 1.2 |  | cleavage by protease III [2]: not cleaved; cleavage by insulysin [3]: not cleaved; cleavage by nardilysin [4]: not cleaved |
| SLRRSSCFGGRMDRIGAQSGLGCNSFRY |  | D-R, first_seen; also recorded: S-F, first_seen |  |
| SLRRSSCFGGRMD▼RIGAQSGLGCNS▼FRY (disulfide) [Atrial natriuretic peptide] | 199.2 ± 18.6 |  |  |
| Somatostatin | 41.7 ± 3.8 |  |  |
| YADAIFTNSYRKVLGQLSARKLQDIMQQGESNQERGA |  | Y-A, minor; also recorded: G-Q, first_seen; also recorded: S-A, first_seen |  |
| YGGFL |  | Y-G, first_seen |  |
| YGGFL [Leu-enkephalin] | 18.7 ± 2.1 |  |  |
| YGGFLRRIRPKLKWDNQ |  | R-I, minor; also recorded: P-K, first_seen; also recorded: Y-G, minor |  |
| YGGFLRRQFKVVT |  | Y-G, minor; also recorded: F-K, minor; also recorded: K-V, first_seen |  |
| YGGFMTSEKSETPLVTLFKNAIIKNAYKKGE |  |  | cleaved bond [7]: Phe-M, minor; also recorded: Thr16-Leu17, minor; also recorded: Pro13-Leu14, minor; also recorded: Leu14-Val15, minor |
| YGG↓F↓MTSEKSETPLV↓T↓L▼FKNA▼IIKNAYKKGE [β-endorphin] | 62.6 ± 5.1 |  |  |
| Y↓ADAIFTNSYRKVLG▼QLS▼ARKL↓QDIMQQGESNQERGA [Growth Hormone Releasing factor] | 29.4 ± 3.4 |  |  |
| Y↓GGFLRRQFK↓VVT↓RSQED▼PNAYYEEL▼FDV [Leumorphin (porcine), Leumorphin] | 63.5 ± 4.5 |  |  |
| Y↓GGFLRRQF↓K▼VVT [Dynorphin B] | 46.3 ± 6.8 |  |  |
| Y↓GGFLRR↓IRP▼KLKWDNQ [Dynorphin A] | 62.6 ± 6.8 |  |  |
